Data: BigSolDB 2.1

Clc1ncnc2[nH]ccc12
solubility (mole fraction)
Details	278.15 K	283.15 K	288.15 K	293.15 K	298.15 K	303.15 K	308.15 K	313.15 K	318.15 K	323.15 K
in THF	0.0461	0.0501	0.0544	0.0594	0.0644	0.0699	0.0757	0.0818	0.0881	0.0954
in acetone	0.0146	0.0165	0.0187	0.021	0.0238	0.0265	0.0296	0.0331	0.0368	0.0409
in acetonitrile	0.00218	0.00277	0.00338	0.00413	0.00502	0.00615	0.00736	0.00881	0.0104	0.0124
in ethanol	0.00849	0.0098	0.0113	0.0131	0.0151	0.0174	0.0199	0.0225	0.0256	0.0291
in ethyl acetate	0.0132	0.0151	0.0172	0.0194	0.0218	0.0246	0.0274	0.0307	0.034	0.0376
in isopropanol	0.00973	0.0113	0.0131	0.0151	0.0174	0.0198	0.0226	0.0258	0.0291	0.0328
in methanol	0.0065	0.00781	0.0093	0.011	0.013	0.0152	0.0177	0.0205	0.0236	0.0272
in n-butanol	0.0122	0.0139	0.0157	0.0179	0.0202	0.0227	0.0254	0.0285	0.0317	0.0354
in n-heptane	0.000583	0.00075	0.00095	0.0012	0.0015	0.00187	0.00229	0.00281	0.00343	0.00415
in n-hexane	0.000393	0.000511	0.000652	0.000851	0.00106	0.00132	0.00165	0.00202	0.0025	0.00306
in n-propanol	0.0098	0.0114	0.0134	0.0155	0.018	0.0205	0.0235	0.0269	0.0305	0.0347
in toluene	0.000808	0.000993	0.00124	0.00153	0.00186	0.00225	0.00272	0.00324	0.00387	0.00461
